Biological target: T1, REV-ERBα (Homo sapiens, UniProt P20393)
T1 sequence (P20393 1-614): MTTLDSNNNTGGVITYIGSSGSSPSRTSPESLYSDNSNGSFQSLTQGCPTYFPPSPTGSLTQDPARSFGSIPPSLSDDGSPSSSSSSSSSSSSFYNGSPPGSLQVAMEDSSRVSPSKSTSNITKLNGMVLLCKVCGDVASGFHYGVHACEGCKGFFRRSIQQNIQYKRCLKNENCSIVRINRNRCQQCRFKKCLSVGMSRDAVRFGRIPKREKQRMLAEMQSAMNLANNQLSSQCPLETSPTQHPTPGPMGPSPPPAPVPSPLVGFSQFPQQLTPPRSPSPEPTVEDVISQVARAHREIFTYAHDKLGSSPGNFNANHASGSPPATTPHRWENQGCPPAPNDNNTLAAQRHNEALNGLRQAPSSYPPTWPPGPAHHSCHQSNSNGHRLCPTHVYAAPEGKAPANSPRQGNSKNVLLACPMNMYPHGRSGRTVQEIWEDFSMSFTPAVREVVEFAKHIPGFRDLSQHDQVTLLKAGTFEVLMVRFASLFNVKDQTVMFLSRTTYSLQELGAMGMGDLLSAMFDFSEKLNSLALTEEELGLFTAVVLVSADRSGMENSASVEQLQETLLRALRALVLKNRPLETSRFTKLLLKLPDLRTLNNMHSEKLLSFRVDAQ
Test: Bmal1-luciferase / REV-ERBα cotransfection reporter assay in HEK293 cells
Format: cell-based

CC(C)(C)OC(=O)CN(Cc1ccc(Cl)cc1)Cc1ccc([N+](=O)[O-])s1 [GSK4112]
IC50: 2.3 µM

Reference: article PMC3042041 (ACS chemical biology, 2010)
